Measurements published in US6407071B1, “Method and composition for treating malignant cells” (Co-Enzyme Technology Ltd., priority 1998, dated 2002).
“And” between values parts separate entries of the source, which are not always exact repeats. Equal values may be shown once.

How the values were obtained:
[1] = tested on: human tumor cells; assay: Oxidizing agents found toxic to human tumor cells; format: cell-based
[2] = tested on: localized malignant melanomas; settings: cited from earlier work
[3] = tested on: cancer cells; assay: Toxicity to cancer cells in vitro relative to para-methoxy phenol; format: cell-based; settings: compared with para-methoxy phenol
[4] = tested on: prostate cancer; assay: Six month study of P.S.A. levels in prostate cancer patients: glyceraldehyde, Glycosole and the combination; format: in vivo, human; design: key to Patient dead (#): # Dead; P.S.A. Levels during 6 month from initiation of treatment, 1 mo. / P.S.A. Levels during 6 month from initiation of treatment, 2 mo. / P.S.A. Levels during 6 month from initiation of treatment, 3 mo. / P.S.A. Levels during 6 month from initiation of treatment, 4 mo. / P.S.A. Levels during 6 month from initiation of treatment, 5 mo. / P.S.A. Levels during 6 month from initiation of treatment, 6 mo.: unit not given here
Protocol: A six month study was conducted comparing the anti-cancer effect of Glycosole (Glyc., the glucuronide of para-methoxy-phenol), glyceraldehyde, and a combination of the two compounds. These compounds were administered to patients suffering from prostate cancer separately and together. All of the patients suffered from bone metastases and no longer responded to conventional hormone therapy. Patients were administered either 3 grams glyceraldehyde per day, 6 grams per day of Glycosole, or a combination of both agents.

4-benzomethoxy phenol
Toxicity to human tumor cells [1]: toxic to human tumor cells

COc1ccc(O)cc1 [4-hydroxyanisole]
Toxicity to human tumor cells [1]: toxic to human tumor cells | Effect on localized malignant melanomas ([2]; intra-arterial infusion): underwent regression | Therapeutic effect in malignant melanoma ([2]; intravenous administration): not therapeutically effective

CCCOc1ccc(O)cc1 [4-propoxy phenol]
Toxicity to human tumor cells [1]: toxic to human tumor cells

CCC(C)(C)c1ccc(O)cc1 [4-tert-amyl phenol]
Toxicity to human tumor cells [1]: toxic to human tumor cells

CCC(C)(C)c1ccc(O[C@@H]2O[C@H](C(=O)O)[C@@H](O)[C@H](O)[C@H]2O)cc1 [4-tert-amyl phenyl glucuronide]
Toxicity to cancer cells in vitro relative to para-methoxy phenol [3]: 5.5 times

N[C@@H](Cc1cc(O)c(O)cc1O)C(=O)O [6-hydroxydopa, 3,4,6-trihydroxyphenylalanine]
Toxicity to human tumor cells [1]: toxic to human tumor cells

O=CC(O)CO (stereo not shown) [Glycer Aldehyde, glyceraldehyde]
P.S.A. Levels during 6 month from initiation of treatment, 1 mo. ([4]; 1 mo., single patients, bone metastases, glyceraldehyde 3 g/day, Glycosole 6 g/day or both): 760 and 190 and 2250 and 340 and 910 and 150 | P.S.A. Levels during 6 month from initiation of treatment, 2 mo. ([4]; 2 mo., single patients, glyceraldehyde 3 g/day, Glycosole 6 g/day or both): 680 and 180 and 1100 and 380 and 850 and 90 | P.S.A. Levels during 6 month from initiation of treatment, 3 mo. ([4]; 3 mo., single patients, glyceraldehyde 3 g/day, Glycosole 6 g/day or both): 600 and 150 and 1000 and 310 and 740 and 80 | P.S.A. Levels during 6 month from initiation of treatment, 4 mo. ([4]; 4 mo., single patients, glyceraldehyde 3 g/day, Glycosole 6 g/day or both): 580 and 145 and 980 and 280 and 760 and 80 | P.S.A. Levels during 6 month from initiation of treatment, 5 mo. ([4]; 5 mo., single patients, glyceraldehyde 3 g/day, Glycosole 6 g/day or both): 540 and 140 and 220 and 680 and 64 | P.S.A. Levels during 6 month from initiation of treatment, 6 mo. ([4]; 6 mo., single patients, glyceraldehyde 3 g/day, Glycosole 6 g/day or both): 420 and 100 and 180 and 360 and 60 | P.S.A. Levels during 6 month from initiation of treatment, 10 mo. ([4]; 10 mo., single patients): 380 and 480 and 600 | P.S.A. Levels during 6 month from initiation of treatment, 11 mo. ([4]; 11 mo., single patients): 920 and 700 | P.S.A. Levels during 6 month from initiation of treatment, 12 mo. ([4]; 12 mo., single patients): 846 | Patient dead (#) ([4]; marked in column 5 mo.): # | Patient dead (#) ([4]; marked in column 11 mo.): # | Patient dead (#) ([4]; marked in column 12 mo.): # | Response of patients to the treatment ([4]; prostate cancer with bone metastases, 3 grams glyceraldehyde per day, 6 grams per day of Glycosole, or both): None of the patients administered glyceraldehyde alone responded

N[C@@H](Cc1ccc(O)c(O)c1)C(=O)O [L-3,4-dihydroxyphenylalanine]
Toxicity to human tumor cells [1]: toxic to human tumor cells

COc1ccc(O)c(C(C)(C)C)c1 [butylated hydroxyanisole]
Toxicity to human tumor cells [1]: toxic to human tumor cells

NCCc1ccc(O)c(O)c1 [dopamine, 3,4-dihydroxyphenethylanine]
Toxicity to human tumor cells [1]: toxic to human tumor cells

Oc1ccc(O)cc1 [hydroquinone]
Toxicity to human tumor cells [1]: toxic to human tumor cells

COC(=O)c1cc(O)c(O)c(O)c1 [methyl gallate]
Toxicity to human tumor cells [1]: toxic to human tumor cells

Oc1cccc(O)c1 [resorcinol]
Toxicity to human tumor cells [1]: toxic to human tumor cells

N[C@@H](Cc1ccc(O)cc1)C(=O)O [tyrosine]
Toxicity to human tumor cells [1]: toxic to human tumor cells
